Here are results for twelve compounds from ChEMBL document CHEMBL4610017, “Discovery of 1,2,4-oxadiazole derivatives as a novel class of noncompetitive inhibitors of 3-hydroxykynurenine transaminase (HKT) from Aedes aegypti” (Bioorg Med Chem, 2020).

What is called IC50 is the concentration needed to halve the response being measured. The term Ki denotes the equilibrium dissociation constant of an inhibitor or competing ligand from its target.

The structures appear in SMILES notation. Calls of active or inactive are those of the source. The rule behind the calls is not given here.

The nature of experiment [1]: Inhibition of recombinant Aedes aegypti RecLab N-terminal Trx-fused/His6-tagged 3-hydroxykynurenine transaminase H360M mutant expressed in Escherichia coli Rosetta 2 (DE3) assessed as conversion of 3-hydroxy kynurenine to xanthurenic-acid using 3-D,L hydroxy kynurenine as substrate preincubated with PLP cofactor and enzyme and 30 mins later incubated with 3-D,L-HK and measured after 5 mins by microplate reader assay.

The subject of experiment [2] is Aedes aegypti. Kind of experiment: Non-competitive mixed inhibition of recombinant Aedes aegypti RecLab N-terminal Trx-fused /His6-tagged 3-hydroxykynurenine transaminase H360M mutant expressed in Escherichia coli Rosetta 2 (DE3) using varying level of 3-D,L hydroxy kynurenine as substrate by Lineweaver-Burk plot analysis.
Experiment [3] can be described thus: Binding affinity to recombinant Aedes aegypti RecLab N-terminal Trx-fused/His6-tagged 3-hydroxykynurenine transaminase H360M mutant expressed in Escherichia coli Rosetta 2 (DE3) assessed as inhibition constant for free form of enzyme.
The nature of experiment [4]: Binding affinity to recombinant Aedes aegypti RecLab N-terminal Trx-fused/His6-tagged 3-hydroxykynurenine transaminase H360M mutant expressed in Escherichia coli Rosetta 2 (DE3) assessed as inhibition constant for enzyme-substrate complex.
The nature of experiment [5]: Competitive inhibition of Anopheles gambiae 3-hydroxykynurenine transaminase.

In the case of `O=C(O)CCCc1nc(-c2ccc(Cl)cc2)no1`, the IC50 in experiment [1] stood at 294 µM.

`COc1ccc(-c2noc(CCCC(=O)O)n2)cc1`: in experiment [1], the IC50 was 101 µM.

In the case of `O=C(O)CCCc1nc(-c2ccc(C(F)(F)F)cc2)no1`, in experiment [1], the IC50 amounted to 70 µM.

For the compound `Cc1ccc(-c2noc(CCCC(=O)O)n2)cc1`, the IC50 in experiment [1] was determined as 88 µM.

As for `O=C(O)CCCc1nc(-c2ccccc2)no1`, in experiment [1], the IC50 worked out at 72 µM. Moreover, the inhibition result in experiment [2] was “Active”. Moreover, the Ki worked out at 360 µM in experiment [3] and 1220 µM in experiment [4].

Regarding `Cc1cccc(-c2noc(CCCC(=O)O)n2)c1`, the IC50 in experiment [1] was found to be 54 µM.

Regarding `O=C(O)CCCc1nc(-c2ccc(Cl)c(Cl)c2)no1`, the IC50 in experiment [1] was 64 µM.

`O=C(O)CCCc1nc(-c2ccc(I)cc2)no1`: the IC50 in experiment [1] stood at 42 µM.

As for `O=C(O)CCCc1nc(-c2ccc3c(c2)OCO3)no1`, the IC50 in experiment [1] worked out at 87 µM.

`Nc1ccccc1C(=O)CCC(=O)O` came in with a Ki in experiment [5] of 300 µM.

Turning to `O=C(O)CCCc1nc(-c2ccc(Br)cc2)no1`, the IC50 in experiment [1] worked out at 110 µM.

As for `O=C(O)CCCc1nc(-c2cccc3ccccc23)no1`, the IC50 in experiment [1] was 63 µM.
